“Also recorded” adds a separate entry of the source. Non-standard residues stand in square brackets, D forms with d. No end group written: not given here. Bip = N[C@@H](Cc1ccc(-c2ccccc2)cc1)C(=O)O
Columns and labels:
[1] = test system: phosphatidylserine (PS)-containing liposomes (PC/PS vesicles); assay: Liposome binding assay (Trp-to-dansyl FRET) with large unilamellar vesicles; set-up: key to Liposome binding assay: “Y” means PS-selective (or apoptotic cell-specific) binding is observed; N means no or insignificant membrane binding is observed; “Nonselective” refers to membrane binding independent on PS; settings: for Liposome binding assay: dansyl FRET assay; for binding to PC/PS liposomes (sensitized dansyl emission at 520 nm): PC/PS vesicles; for PS-selective binding in the presence of cholesterol: cholesterol-containing liposomes with PS vs without PS; for binding to lipid vesicles of either composition: vesicles with and without PS
Procedure: The binding of cLac to lipid membrane can be analyzed by any method known it the art. For example, by the fluorescence assay (Trp-to-dansyl FRET) described herein. Basically, large unilamellar vesicles (100 nm in diameter) were prepared with phosphatidylcholine (PC) and varied percentages of PS. All vesicles contained 5% dansyl-labeled PE to serve as a reporting group. The peptide-vesicle binding was monitored by the fluorescence resonance energy transfer (FRET) from Trp to the dansyl group. Emission of sensitized dansyl is monitored at 520 nm and Trp emission is monitored near 350 nm. Membrane binding of cLac to the PC/PS vesicles produces a sensitized dansyl emission at 520 nm with a concurrent decrease of Trp emission near 350 nm.
The peptide-membrane binding was evaluated via a fluorescence assay: large unilamellar vesicles (100 nm in diameter) were prepared with PC and varied percentages of PS. All vesicles contained 5% dansyl-labeled PE to serve as a reporting group. The peptide-vesicle binding was monitored by the fluorescence resonance energy transfer (FRET) from Trp to the dansyl group.

[2] = test system: apoptotic HeLa and Jukat cells (STS or CPT treated); assay: Cell imaging of apoptotic cells by epifluorescence microscopy; assay type: cell-based, human; set-up: key to Cell imaging: “Y” means PS-selective (or apoptotic cell-specific) binding is observed; N means no or insignificant membrane binding is observed; “Nonselective” refers to membrane binding independent on PS; settings: for Cell imaging: standard epifluorescence microscopy
Procedure: The fluorescent derivative was tested for its potential to stain apoptotic cells. Cultured HeLa and Jukat cells were treated with the potent apoptogen staurosporine (STS) or camptothecin (CPT) respectively to trigger apoptosis. The experimental conditions were optimized with the FITC-labeled annexin V and the membrane impermeable DNA intercalator propidium iodine (PI). The treatment with 0.1 μM STS or CPT for 4 hours gave a large population of early apoptotic cells (data not shown), which were stained with annexin, but not PI. This indicates increased presence of PS exposure on the outer membrane leaflet of the cells experiencing early apoptosis. […] As negative controls, both fluorescein alone as well as the FITC-labeled linear precursor of cLac were used to label the apoptotic cells and tested for fluorescence staining. […] This observation is consistent with the previous reports that annexin V preferentially binds to cells at the early stages of apoptosis. Since these early apoptotic cells hold their membrane integrity (PI negative), it is believed cLac2-Fl stained the cells by binding to their outer surfaces, presumably to PS.

PS = settings: without cofactors; cited from earlier work

| Molecule | Liposome binding assay [1] | also measured |
| --- | --- | --- |
| cLac-A3: alanine for glycine linker variant G10A, SEQ. ID. NO. 40 (WFGHIQGGRAGGD; cyclic) | N |  |
| WBipGHIQGGRGGGD (cyclo(W[Bip]GHIQGGRGGGD); SMILES CC[C@H](C)[C@@H]1NC(=O)[C@H](Cc2c[nH]cn2)NC(=O)CNC(=O)[C@H](Cc2ccc(-c3ccccc3)cc2)NC(=O)[C@H](Cc2c[nH]c3ccccc23)NC(=O)[C@H](CC(=O)O)NC(=O)CNC(=O)CNC(=O)CNC(=O)[C@H](CCCNC(=N)N)NC(=O)CNC(=O)CNC(=O)[C@H](CCC(N)=O)NC1=O) [cLac-2, biphenylalanine replaces Phe] | Y | binding to PC-alone liposomes ([1]; FRET, PC-alone liposomes): no binding; binding to PC/PS liposomes (sensitized dansyl emission at 520 nm) ([1]; FRET): clearly elicits a sensitized dansyl emission; also recorded: only with PC/PS liposomes; binding to cholesterol-containing membranes without PS ([1]; cholesterol-containing PC liposomes): non-specific binding; PS-selective binding in the presence of cholesterol [1]: able to differentiate PS-containing vesicles from PS-absent vesicles; dansyl fluorescence of vesicles containing 20% PS relative to 5% PS ([1]; peptide at saturating concentration 50 μM): close to four-fold; Kd ([1]; titration with PC/PS vesicles, sensitized dansyl emission, read-out: apparent dissociation constant (Kd)): ~15 µM |
| WBipGHIQGRGGGD (cyclo(W[Bip]GHIQGRGGGD); SMILES CC[C@H](C)[C@@H]1NC(=O)[C@H](Cc2c[nH]cn2)NC(=O)CNC(=O)[C@H](Cc2ccc(-c3ccccc3)cc2)NC(=O)[C@H](Cc2c[nH]c3ccccc23)NC(=O)[C@H](CC(=O)O)NC(=O)CNC(=O)CNC(=O)CNC(=O)[C@H](CCCNC(=N)N)NC(=O)CNC(=O)[C@H](CCC(N)=O)NC1=O) [cLac-13G] | Y |  |
| WBipGHIQAGRGGGD (cyclo(W[Bip]GHIQAGRGGGD); SMILES CC[C@H](C)[C@@H]1NC(=O)[C@H](Cc2c[nH]cn2)NC(=O)CNC(=O)[C@H](Cc2ccc(-c3ccccc3)cc2)NC(=O)[C@H](Cc2c[nH]c3ccccc23)NC(=O)[C@H](CC(=O)O)NC(=O)CNC(=O)CNC(=O)CNC(=O)[C@H](CCCNC(=N)N)NC(=O)CNC(=O)[C@H](C)NC(=O)[C@H](CCC(N)=O)NC1=O) [cLac-A1] | Y |  |
| Lac-1R: cLac variant peptide, SEQ. ID. NO. 36 (GGGRGQIHGWD) | N |  |
| WBipGHIQGARGGGD (cyclo(W[Bip]GHIQGARGGGD); SMILES CC[C@H](C)[C@@H]1NC(=O)[C@H](Cc2c[nH]cn2)NC(=O)CNC(=O)[C@H](Cc2ccc(-c3ccccc3)cc2)NC(=O)[C@H](Cc2c[nH]c3ccccc23)NC(=O)[C@H](CC(=O)O)NC(=O)CNC(=O)CNC(=O)CNC(=O)[C@H](CCCNC(=N)N)NC(=O)[C@H](C)NC(=O)CNC(=O)[C@H](CCC(N)=O)NC1=O) [cLac-A2] | Y |  |
| Lac-Tph: cLac variant peptide, SEQ. ID. NO. 39 (WFGHIQGGRGGGD) | Nonselective |  |
| cLac-1: first cyclic lactadherin mimetic with Trp and Phe as membrane insertion motif, SEQ. ID. NO. 38 (WFGHIQGGRGGGD; cyclic) | N | binding to lipid vesicles of either composition ([1]; FRET): no binding |
| WBipGHIQGGRGGAD (cyclo(W[Bip]GHIQGGRGGAD); SMILES CC[C@H](C)[C@@H]1NC(=O)[C@H](Cc2c[nH]cn2)NC(=O)CNC(=O)[C@H](Cc2ccc(-c3ccccc3)cc2)NC(=O)[C@H](Cc2c[nH]c3ccccc23)NC(=O)[C@H](CC(=O)O)NC(=O)[C@H](C)NC(=O)CNC(=O)CNC(=O)[C@H](CCCNC(=N)N)NC(=O)CNC(=O)CNC(=O)[C@H](CCC(N)=O)NC1=O) [cLac-A5] | Y |  |
| cLac-A4: alanine for glycine linker variant G11A, SEQ. ID. NO. 41 (WFGHIQGGRGAGD; cyclic) | N |  |
| Lactadherin: 47 kDa glycoprotein, natural PS-binding protein (protein, UniProt Q08431 24-387, looked up) Lactadherin: LDICSKNPCHNGGLCEEISQEVRGDVFPSYTCTCLKGYAGNHCETKCVEPLGLENGNIANSQIAASSVRVTFLGLQHWVPELARLNRAGMVNAWTPSSNDDNPWIQVNLLRRMWVTGVVTQGASRLASHEYLKAFKVAYSLNGHEFDFIHDVNKKHKEFVGNWNKNAVHVNLFETPVEAQYVRLYPTSCHTACTLRFELLGCELNGCANPLGLKNNSIPDKQITASSSYKTWGLHLFSWNPSYARLDKQGNFNAWVAGSYGNDQWLQVDLGSSKEVTGIITQGARNFGSVQFVASYKVAYSNDSANWTEYQDPRTGSSKIFPGNWDNHSHKKNLFETPILARYVRILPVAWHNRIALRLELLGC |  | affinity of binding to PS (PS): nanomolar |
| FITC-labeled annexin V: naturally occurring 36 kDa PS-binding protein, FITC-labeled (protein, UniProt P08758 2-320, looked up, FITC label) Annexin A5: AQVLRGTVTDFPGFDERADAETLRKAMKGLGTDEESILTLLTSRSNAQRQEISAAFKTLFGRDLLDDLKSELTGKFEKLIVALMKPSRLYDAYELKHALKGAGTNEKVLTEIIASRTPEELRAIKQVYEEEYGSSLEDDVVGDTSGYYQRMLVVLLQANRDPDAGIDEAQVEQDAQALFQAGELKWGTDEEKFITIFGTRSVSHLRKVFDKYMTISGFQIEETIDRETSGNLEQLLLAVVKSIRSIPAYLAETLYYAMKGAGTDDHTLIRVMVSRSEIDLFNIRKEFRKNFATSLYSMIKGDTSGDYKKALLLLCGEDD |  | staining of apoptotic cells ([2]; 0.1 μM STS or CPT for 4 hours, early apoptotic cells): stained |

Further lines, with some results ahead:

| Liposome binding assay [1] | Molecule | also measured |
| --- | --- | --- |
| N | Lac-1: cLac variant peptide, SEQ. ID. NO. 35 (WGHIQGRGGGD) |  |
| Y | WBipGHIQGGGRGGGD (cyclo(W[Bip]GHIQGGGRGGGD); SMILES CC[C@H](C)[C@@H]1NC(=O)[C@H](Cc2c[nH]cn2)NC(=O)CNC(=O)[C@H](Cc2ccc(-c3ccccc3)cc2)NC(=O)[C@H](Cc2c[nH]c3ccccc23)NC(=O)[C@H](CC(=O)O)NC(=O)CNC(=O)CNC(=O)CNC(=O)[C@H](CCCNC(=N)N)NC(=O)CNC(=O)CNC(=O)CNC(=O)[C@H](CCC(N)=O)NC1=O) [cLac-33G] |  |
| Y | WBipGHIQGppGRGGAD [cLac-PPG-2] | binding to PC/PS liposomes (sensitized dansyl emission at 520 nm) ([1]; FRET): selective binding; PS-selective binding in the presence of cholesterol [1]: selective binding; Cell imaging [2]: Y |
| Y | D-WBipGHIQGGRGGGD (cyclo([dW][Bip]GHIQGGRGGGD); SMILES CC[C@H](C)[C@@H]1NC(=O)[C@H](Cc2c[nH]cn2)NC(=O)CNC(=O)[C@H](Cc2ccc(-c3ccccc3)cc2)NC(=O)[C@@H](Cc2c[nH]c3ccccc23)NC(=O)[C@H](CC(=O)O)NC(=O)CNC(=O)CNC(=O)CNC(=O)[C@H](CCCNC(=N)N)NC(=O)CNC(=O)CNC(=O)[C@H](CCC(N)=O)NC1=O) [cLac-D-Trp] |  |
| Y | WBipGHIQGGRGGGGD (cyclo(W[Bip]GHIQGGRGGGGD); SMILES CC[C@H](C)[C@@H]1NC(=O)[C@H](Cc2c[nH]cn2)NC(=O)CNC(=O)[C@H](Cc2ccc(-c3ccccc3)cc2)NC(=O)[C@H](Cc2c[nH]c3ccccc23)NC(=O)[C@H](CC(=O)O)NC(=O)CNC(=O)CNC(=O)CNC(=O)CNC(=O)[C@H](CCCNC(=N)N)NC(=O)CNC(=O)CNC(=O)[C@H](CCC(N)=O)NC1=O) [cLac-24G] |  |
| Y | WBipGHIQGGRGGGGGD (cyclo(W[Bip]GHIQGGRGGGGGD); SMILES CC[C@H](C)[C@@H]1NC(=O)[C@H](Cc2c[nH]cn2)NC(=O)CNC(=O)[C@H](Cc2ccc(-c3ccccc3)cc2)NC(=O)[C@H](Cc2c[nH]c3ccccc23)NC(=O)[C@H](CC(=O)O)NC(=O)CNC(=O)CNC(=O)CNC(=O)CNC(=O)CNC(=O)[C@H](CCCNC(=N)N)NC(=O)CNC(=O)CNC(=O)[C@H](CCC(N)=O)NC1=O) [cLac-25G] |  |
| N | Lac-2: cLac variant peptide, SEQ. ID. NO. 37 (WGHIQGGRGGGD) |  |
| N | cLac-22G: cLac variant with di-Gly in linker II, SEQ. ID. NO. 42 (WFGHIQGGRGGD; cyclic) | dansyl emission / membrane binding compared among linker-length variants ([1]; Trp-to-dansyl FRET, Gly number of linker II varied 2 to 5, or linker I varied): lowest |
| Y | WBipGHppGQGGRGGGD [cLac-PPG-0] | binding to PC/PS liposomes (sensitized dansyl emission at 520 nm) ([1]; FRET): selective binding; PS-selective binding in the presence of cholesterol [1]: selective binding; Cell imaging [2]: Y |
| N | DWBipGHIQGGRGGG (DW[Bip]GHIQGGRGGG; not fully specified) [cLac-linear, ID; NO; 43] | binding to lipid vesicles of either composition ([1]; FRET): binds to neither type of vesicle; Cell imaging [2]: N |
